# Data as given in ChEMBL document CHEMBL1909046, “DrugMatrix in vitro pharmacology data”.
# Assays:
# Leukotriene C4 synthase = biological target: T1, Leukotriene C4 synthase (Cavia porcellus, UniProt A6XA80); type: tissue-based, Lung;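 further: enzyme inhibition assay of leukotriene C4 synthase, using LTA4 as the substrate; in other assays of this panel Not Active means under 50% inhibition at 10 µM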
# T1 sequence (A6XA80 whole entry): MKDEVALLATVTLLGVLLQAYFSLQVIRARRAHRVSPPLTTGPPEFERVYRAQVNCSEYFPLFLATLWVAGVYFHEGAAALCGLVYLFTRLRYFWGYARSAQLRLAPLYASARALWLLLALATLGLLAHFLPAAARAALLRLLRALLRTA
# Acetylcholinesterase = Acetylcholinesterase (Homo sapiens, UniProt P22303); assay: DRUGMATRIX: Acetylcholinesterase enzyme inhibition (substrate: acetylthiocholine); type: cell-based, HEK293; conditions: Not Active = under 50% inhibition at 10 µM
# D(1A) dopamine receptor = D(1A) dopamine receptor (Homo sapiens, UniProt P21728); assay: DRUGMATRIX: Dopamine D1 radioligand binding (ligand: [3H] SCH-23390); type: cell membranes, CHO, Membrane; conditions: Not Active = under 50% inhibition at 10 µM; for Ki: read-out: Ki
# [1] = biological target: Beta-2 adrenergic receptor (Homo sapiens, UniProt P07550); assay: DRUGMATRIX: Adrenergic beta2 radioligand binding (ligand: [3H] CGP-12177); type: cell membranes, CHO, Membrane; conditions: Not Active = under 50% inhibition at 10 µM
# [2] = biological target: C-C chemokine receptor type 2 (Homo sapiens, UniProt P41597); type: cell membranes, CHO-K1, Membrane; further: in other assays of this panel Not Active means under 50% inhibition at 10 µM
# C-C chemokine receptor type 2, sequence (P41597 whole entry): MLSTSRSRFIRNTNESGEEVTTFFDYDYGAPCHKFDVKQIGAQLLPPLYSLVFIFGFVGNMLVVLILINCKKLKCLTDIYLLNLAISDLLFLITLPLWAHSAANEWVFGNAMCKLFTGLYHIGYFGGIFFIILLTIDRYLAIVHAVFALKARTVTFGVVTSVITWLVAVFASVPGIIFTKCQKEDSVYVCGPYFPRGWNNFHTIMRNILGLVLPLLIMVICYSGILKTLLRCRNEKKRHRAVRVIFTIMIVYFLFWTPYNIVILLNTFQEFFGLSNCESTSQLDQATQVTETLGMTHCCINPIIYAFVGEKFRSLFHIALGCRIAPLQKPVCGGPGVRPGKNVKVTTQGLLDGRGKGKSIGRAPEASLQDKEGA
# D(1A) dopamine receptor, sequence (P21728 whole entry): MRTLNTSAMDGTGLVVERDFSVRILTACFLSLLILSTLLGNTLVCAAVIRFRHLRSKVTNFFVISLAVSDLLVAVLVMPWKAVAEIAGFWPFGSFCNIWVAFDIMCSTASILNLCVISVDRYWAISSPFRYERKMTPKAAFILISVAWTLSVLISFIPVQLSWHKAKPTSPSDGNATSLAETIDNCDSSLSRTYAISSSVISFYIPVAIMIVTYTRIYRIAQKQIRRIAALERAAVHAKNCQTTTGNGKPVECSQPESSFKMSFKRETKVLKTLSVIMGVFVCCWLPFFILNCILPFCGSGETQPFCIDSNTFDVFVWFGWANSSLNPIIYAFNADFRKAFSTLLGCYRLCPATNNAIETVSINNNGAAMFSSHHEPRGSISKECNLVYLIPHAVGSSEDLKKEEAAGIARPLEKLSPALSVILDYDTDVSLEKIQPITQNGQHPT
# Beta-2 adrenergic receptor, sequence (P07550 whole entry): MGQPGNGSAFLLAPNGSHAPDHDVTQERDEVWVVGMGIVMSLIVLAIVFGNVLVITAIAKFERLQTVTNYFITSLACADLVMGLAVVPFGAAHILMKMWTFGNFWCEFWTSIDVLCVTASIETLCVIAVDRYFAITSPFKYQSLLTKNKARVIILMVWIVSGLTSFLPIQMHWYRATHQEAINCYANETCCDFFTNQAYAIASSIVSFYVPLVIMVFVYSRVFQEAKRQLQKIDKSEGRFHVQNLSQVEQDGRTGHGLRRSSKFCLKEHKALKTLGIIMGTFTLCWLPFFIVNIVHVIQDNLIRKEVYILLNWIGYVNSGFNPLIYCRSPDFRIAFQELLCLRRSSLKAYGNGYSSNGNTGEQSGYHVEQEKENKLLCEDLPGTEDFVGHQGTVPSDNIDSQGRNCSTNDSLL
# Acetylcholinesterase, sequence (P22303 whole entry): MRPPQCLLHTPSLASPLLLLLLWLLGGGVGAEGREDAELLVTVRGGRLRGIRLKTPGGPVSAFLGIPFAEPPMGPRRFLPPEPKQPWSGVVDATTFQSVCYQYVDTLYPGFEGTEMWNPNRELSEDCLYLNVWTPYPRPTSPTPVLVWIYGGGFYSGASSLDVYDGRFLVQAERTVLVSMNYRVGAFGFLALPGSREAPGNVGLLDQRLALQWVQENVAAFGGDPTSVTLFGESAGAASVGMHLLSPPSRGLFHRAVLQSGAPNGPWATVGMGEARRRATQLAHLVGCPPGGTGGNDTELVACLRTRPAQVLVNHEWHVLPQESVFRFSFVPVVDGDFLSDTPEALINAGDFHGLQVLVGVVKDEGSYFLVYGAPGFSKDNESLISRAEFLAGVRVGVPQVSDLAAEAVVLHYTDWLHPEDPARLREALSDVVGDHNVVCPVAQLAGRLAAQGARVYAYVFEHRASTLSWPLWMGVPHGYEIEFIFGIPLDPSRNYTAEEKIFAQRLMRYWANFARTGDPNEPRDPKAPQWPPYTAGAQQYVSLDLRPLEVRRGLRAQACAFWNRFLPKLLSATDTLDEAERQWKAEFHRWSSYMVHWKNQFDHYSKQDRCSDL
Compound,IC50 (Leukotriene C4 synthase),IC50 (Acetylcholinesterase; hek293),IC50 (D(1A) dopamine receptor; cho),IC50 ([1]; cho),IC50 ([2]; cho-k1),IC50 (Acetylcholinesterase; read-out: IC50),IC50 ([2]; read-out: IC50),Ki ([2]; read-out: Ki),IC50 (D(1A) dopamine receptor; read-out: IC50),Ki (D(1A) dopamine receptor),IC50 ([1]; read-out: IC50),Ki ([1]; read-out: Ki)
Nn1nnc2ccccc21,Not Active,Not Active,Not Active,Not Active,Not Active,–,–,–,–,–,–,–
CC[C@]1(O)CC[C@H]2[C@@H]3CCC4=CCCC[C@@H]4[C@H]3CC[C@@]21C,Not Active,–,Not Active,Not Active,Not Active,6500 nM,–,–,–,–,–,–
N[C@@H](Cc1ccc(F)cc1)C(=O)O,Not Active,Not Active,Not Active,Not Active,Not Active,–,–,–,–,–,–,–
CCOC(=O)[C@H](CCc1ccccc1)N[C@@H](C)C(=O)N1Cc2ccccc2C[C@H]1C(=O)O,Not Active,Not Active,Not Active,Not Active,Not Active,–,–,–,–,–,–,–
O=C(c1ccccc1Cl)N1CCC(Cc2ccccc2)CC1,Not Active,Not Active,Not Active,Not Active,Not Active,–,–,–,–,–,–,–
CCOC(=O)[C@H](CCc1ccccc1)N[C@@H](C)C(=O)N1CCC[C@H]1C(=O)O,Not Active,Not Active,Not Active,Not Active,Not Active,–,–,–,–,–,–,–
"Clc1cc2c(cc1Cl)Oc1cc(Cl)c(Cl)cc1O2 [2,3,7,8-TETRACHLORODIBENZO-P-DIOXIN]",Not Active,Not Active,Not Active,Not Active,Not Active,–,–,–,–,–,–,–
C=C1/C(=C\C=C2/CCC[C@]3(C)[C@@H]([C@H](C)CCCC(C)C)CC[C@@H]23)C[C@@H](O)C[C@@H]1O [ALFACALCIDOL],Not Active,Not Active,Not Active,Not Active,Not Active,–,–,–,–,–,–,–
CCCCCC[C@H]1C(=O)O[C@H](C)[C@H](NC(=O)c2cccc(NC=O)c2O)C(=O)O[C@@H](C)[C@@H]1OC(=O)CC(C)C [ANTIMYCIN A],Not Active,Not Active,Not Active,Not Active,Not Active,–,–,–,–,–,–,–
C[C@@H]1CC[C@H]2[C@@H](C)C(=O)O[C@@H]3O[C@@]4(C)CC[C@@H]1[C@]32OO4 [ARTEMISININ],Not Active,Not Active,Not Active,Not Active,Not Active,–,–,–,–,–,–,–
CO[C@H]1[C@@H](O)[C@H](N)[C@@H](O[C@H]2O[C@H]([C@H](C)N)CC[C@H]2N)[C@H](O)[C@@H]1N(C)C(=O)CN [ASTROMICIN],Not Active,Not Active,Not Active,Not Active,Not Active,–,–,–,–,–,–,–
[N-]=[N+]=CC(=O)OC[C@H](N)C(=O)O [AZASERINE],Not Active,Not Active,Not Active,Not Active,Not Active,–,–,–,–,–,–,–
CC[C@H]1OC(=O)[C@H](C)[C@@H](O[C@H]2C[C@@](C)(OC)[C@@H](O)[C@H](C)O2)[C@H](C)[C@@H](O[C@@H]2O[C@H](C)C[C@H](N(C)C)[C@H]2O)[C@](C)(O)C[C@@H](C)CN(C)[C@H](C)[C@@H](O)[C@]1(C)O [AZITHROMYCIN],Not Active,Not Active,Not Active,Not Active,Not Active,–,–,–,–,–,–,–
CC(C)(C)c1ccc(S(=O)(=O)/C=C/C#N)cc1 [BAY-11-7085],Not Active,Not Active,–,Not Active,–,–,4180 nM,1610 nM,–,–,–,–
CCc1oc2ccccc2c1C(=O)c1cc(Br)c(O)c(Br)c1 [BENZBROMARONE],Not Active,Not Active,Not Active,Not Active,Not Active,–,–,–,–,–,–,–
O=c1cc(-c2ccccc2)oc2ccc3ccccc3c12 [BETA-NAPHTHOFLAVONE],Not Active,Not Active,Not Active,Not Active,Not Active,–,–,–,–,–,–,–
CC(C)C[C@H]1C(=O)N2CCC[C@H]2[C@]2(O)O[C@](NC(=O)[C@@H]3C=C4c5cccc6[nH]c(Br)c(c56)C[C@H]4N(C)C3)(C(C)C)C(=O)N12 [BROMOCRIPTINE],Not Active,Not Active,–,Not Active,Not Active,–,–,–,2890 nM,1440 nM,–,–
CS(=O)(=O)OCCCCOS(C)(=O)=O [BUSULFAN],Not Active,Not Active,Not Active,Not Active,Not Active,–,–,–,–,–,–,–
O=C(/C=C/c1ccc(O)c(O)c1)OCCc1ccccc1 [CAFFEIC ACID PHENETHYL ESTER],Not Active,Not Active,Not Active,Not Active,Not Active,–,–,–,–,–,–,–
COc1cc(CNC(=O)CCCC/C=C/C(C)C)ccc1O [CAPSAICIN],Not Active,Not Active,Not Active,Not Active,Not Active,–,–,–,–,–,–,–
NC(=O)N1c2ccccc2C=Cc2ccccc21 [CARBAMAZEPINE],Not Active,Not Active,Not Active,Not Active,Not Active,–,–,–,–,–,–,–

Compound,IC50 (Leukotriene C4 synthase),IC50 (Acetylcholinesterase; hek293),IC50 (D(1A) dopamine receptor; cho),IC50 ([1]; cho),IC50 ([2]; cho-k1),IC50 (Acetylcholinesterase; read-out: IC50),IC50 ([2]; read-out: IC50),Ki ([2]; read-out: Ki),IC50 (D(1A) dopamine receptor; read-out: IC50),Ki (D(1A) dopamine receptor),IC50 ([1]; read-out: IC50),Ki ([1]; read-out: Ki)
CCOC(=O)n1ccn(C)c1=S [CARBIMAZOLE],Not Active,Not Active,Not Active,Not Active,Not Active,–,–,–,–,–,–,–
Oc1ccccc1O [CATECHOL],Not Active,Not Active,Not Active,Not Active,Not Active,–,–,–,–,–,–,–
CO[C@@]1(NC(=O)CSCC#N)C(=O)N2C(C(=O)O)=C(CSc3nnnn3C)CS[C@@H]21 [CEFMETAZOLE],Not Active,Not Active,Not Active,Not Active,Not Active,–,–,–,–,–,–,–
CN(C(=O)CCCOc1ccc2[nH]c(=O)ccc2c1)C1CCCCC1 [CILOSTAMIDE],Not Active,Not Active,Not Active,Not Active,Not Active,–,–,–,–,–,–,–
CC(C)(Oc1ccc(C2CC2(Cl)Cl)cc1)C(=O)O (configuration not stated) [CIPROFIBRATE],Not Active,Not Active,Not Active,Not Active,Not Active,–,–,–,–,–,–,–
Nc1nc(Cl)nc2c1ncn2[C@H]1C[C@H](O)[C@@H](CO)O1 [CLADRIBINE],Not Active,Not Active,Not Active,Not Active,Not Active,–,–,–,–,–,–,–
CC[C@H]1OC(=O)[C@H](C)[C@@H](O[C@H]2C[C@@](C)(OC)[C@@H](O)[C@H](C)O2)[C@H](C)[C@@H](O[C@@H]2O[C@H](C)C[C@H](N(C)C)[C@H]2O)[C@](C)(OC)C[C@@H](C)C(=O)[C@H](C)[C@@H](O)[C@]1(C)O [CLARITHROMYCIN],Not Active,Not Active,Not Active,Not Active,Not Active,–,–,–,–,–,–,–
CCC[C@@H]1C[C@@H](C(=O)N[C@@H]([C@H]2O[C@H](SC)[C@H](O)[C@@H](O)[C@H]2O)[C@H](C)Cl)N(C)C1 [CLINDAMYCIN],Not Active,Not Active,Not Active,Not Active,Not Active,–,–,–,–,–,–,–
O=C(O)c1cc(=O)c2c(OCC(O)COc3cccc4oc(C(=O)O)cc(=O)c34)cccc2o1 [CROMOLYN],Not Active,Not Active,Not Active,Not Active,Not Active,–,–,–,–,–,–,–
O=P1(N(CCCl)CCCl)NCCCO1 (configuration not stated) [CYCLOPHOSPHAMIDE ANHYDROUS],Not Active,Not Active,Not Active,Not Active,Not Active,–,–,–,–,–,–,–
CC(=O)O[C@]1(C(C)=O)CC[C@H]2[C@@H]3C=C(Cl)C4=CC(=O)[C@@H]5C[C@@H]5[C@]4(C)[C@H]3CC[C@@]21C [CYPROTERONE ACETATE],Not Active,Not Active,Not Active,Not Active,Not Active,–,–,–,–,–,–,–
Nc1nc(N)nc(NC2CC2)n1 [CYROMAZINE],Not Active,Not Active,Not Active,Not Active,Not Active,–,–,–,–,–,–,–
C#C[C@]1(O)CC[C@H]2[C@@H]3CCC4=Cc5oncc5C[C@]4(C)[C@H]3CC[C@@]21C [DANAZOL],Not Active,Not Active,–,Not Active,Not Active,–,–,–,–,–,–,–
CCN[C@@H](C)Cc1cccc(C(F)(F)F)c1 [DEXFENFLURAMINE],Not Active,Not Active,Not Active,Not Active,Not Active,–,–,–,–,–,–,–
C[C@H](C(=O)O)c1cccc(C(=O)c2ccccc2)c1 [DEXKETOPROFEN],Not Active,Not Active,Not Active,Not Active,Not Active,–,–,–,–,–,–,–
CN1C(=O)CN=C(c2ccccc2)c2cc(Cl)ccc21 [DIAZEPAM],Not Active,Not Active,Not Active,Not Active,Not Active,–,–,–,–,–,–,–
CN1C[C@H](C(=O)N[C@]2(C)O[C@@]3(O)[C@@H]4CCCN4C(=O)[C@H](Cc4ccccc4)N3C2=O)C[C@@H]2c3cccc4[nH]cc(c34)C[C@H]21 [DIHYDROERGOTAMINE],Not Active,Not Active,–,Not Active,Not Active,–,–,–,2390 nM,1200 nM,–,–
Cc1c(N(C)CS(=O)(=O)[O-])c(=O)n(-c2ccccc2)n1C.[Na+] [DIPYRONE SODIUM],Not Active,Not Active,Not Active,Not Active,Not Active,–,–,–,–,–,–,–
CC(CCc1ccc(O)cc1)NCCc1ccc(O)c(O)c1 (configuration not stated) [DOBUTAMINE],Not Active,Not Active,Not Active,–,Not Active,–,–,–,–,–,1520 nM,1040 nM
CCn1cc(C(=O)O)c(=O)c2cc(F)c(N3CCNCC3)nc21 [ENOXACIN],Not Active,Not Active,Not Active,Not Active,Not Active,–,–,–,–,–,–,–
